Results on seven compounds are retold here after ChEMBL document CHEMBL1201862, “PubChem BioAssay data set” (2004).

Calls of active or inactive are those of the source.

Assay [1] is described as follows: inhibitors of firefly luciferase expression or activity, dose response, H4 neuroglioma cells, luminescence (AID 1990). In kind it is functional, cell-based.
Assay [2] can be described thus: Luminescence Cell-Based Dose Response HTS to Identify Inhibitors of 5'UTR Stem-Loop Driven Prion Protein mRNA Translation in H4 Neuroglioblastoma Cells. [Related pubchem assays: 1827 (Project Summary), 1813 (Primary HTS)]. The class given is functional.
In assay [3] the target is T1, Heat shock factor protein 1 (Mus musculus, UniProt P38532).
T1 sequence (P38532 whole entry): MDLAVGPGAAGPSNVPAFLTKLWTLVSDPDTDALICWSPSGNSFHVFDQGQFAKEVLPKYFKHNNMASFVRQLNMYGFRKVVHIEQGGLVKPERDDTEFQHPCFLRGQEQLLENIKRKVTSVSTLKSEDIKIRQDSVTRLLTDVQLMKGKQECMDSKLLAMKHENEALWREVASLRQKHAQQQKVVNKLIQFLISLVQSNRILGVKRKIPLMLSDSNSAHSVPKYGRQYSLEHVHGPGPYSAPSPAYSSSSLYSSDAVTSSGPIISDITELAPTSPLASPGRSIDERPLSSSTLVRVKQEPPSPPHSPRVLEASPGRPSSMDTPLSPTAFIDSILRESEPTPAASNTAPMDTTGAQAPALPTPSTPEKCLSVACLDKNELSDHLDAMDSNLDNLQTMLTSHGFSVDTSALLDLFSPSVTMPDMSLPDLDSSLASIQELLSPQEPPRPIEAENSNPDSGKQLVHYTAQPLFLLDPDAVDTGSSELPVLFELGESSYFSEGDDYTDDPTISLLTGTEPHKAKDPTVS
Description: inhibition of MG132-induced HSE-luciferase signal, confirmation, cell-based, NIH3T3, luminescence, dose retest (AID 2382).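 Further: NIH3T3 fibroblasts with HSF1-driven luciferase reporter stressed by proteasome inhibitor MG132; luminescence from HSF1-driven luciferase expression after 8 hours of MG132 stress.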 The class given is functional.

A short description of assay [4]: inhibitors of SNCA 5'UTR-driven reporter translation, confirmation, H4 neuroglioma cells, luminescence (AID 1988). In kind it is functional, cell-based.
The nature of assay [5]: Luminescence-based counterscreen assay for KLF5 inhibitors: dose response cell-based high throughput screening assay to identify cytotoxic compounds using the IEC-6 intestinal epithelial cell line. [Related pubchem assays: 1700 (Primary screen.), 1834 (Confirmation screen.), 1858 (Summary AID.), 1905 (Counterscreen.)]. In kind it is functional. (The purpose of a counterscreen is to sort out artefacts and off-target activity.)

The target in assay [6] is T2, Microphthalmia-associated transcription factor (Homo sapiens, UniProt O75030).
T2 sequence (O75030 whole entry): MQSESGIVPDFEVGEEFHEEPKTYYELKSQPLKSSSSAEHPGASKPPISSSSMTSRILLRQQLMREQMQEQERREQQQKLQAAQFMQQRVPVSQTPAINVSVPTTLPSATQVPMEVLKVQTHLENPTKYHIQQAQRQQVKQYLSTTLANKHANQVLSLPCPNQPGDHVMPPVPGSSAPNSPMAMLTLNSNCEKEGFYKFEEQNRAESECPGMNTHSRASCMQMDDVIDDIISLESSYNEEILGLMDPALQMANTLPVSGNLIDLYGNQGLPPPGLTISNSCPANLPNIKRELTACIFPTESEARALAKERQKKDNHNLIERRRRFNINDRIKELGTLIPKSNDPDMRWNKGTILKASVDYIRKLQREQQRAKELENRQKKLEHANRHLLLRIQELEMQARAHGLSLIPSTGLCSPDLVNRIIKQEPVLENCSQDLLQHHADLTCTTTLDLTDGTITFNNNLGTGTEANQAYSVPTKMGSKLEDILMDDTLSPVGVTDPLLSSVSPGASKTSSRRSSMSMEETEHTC
Kind of assay: TRPM1 promoter luciferase signal decrease, dose response, MITF inhibitor project, cell-based, SK-MEL-5, cherry-picked, set 3 (AID 493073).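 Further: SK-MEL-5 melanoma cells with luciferase driven by the MITF target TRPM1 promoter.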 In kind it is functional.

Assay [7] can be described thus: inhibitors of HIV Env-driven cell fusion, dose response, cherry-pick (AID 652057). In kind it is functional, cell-based.
The nature of assay [8]: ZM109 Env clade C HIV-1 fusion inhibitors, dose response, HeLa effector, CEM target cells, luciferase, cherry-pick (AID 652058). The class given is functional, cell-based.
Assay [9] can be described thus: off-target signal loss in HeLa-CEM21 co-culture – HeLa F-luc CTL cells, cherry-picked, counter-screen for HIV-1 Env fusion inhibitor project, dose response (AID 652040).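 Further: potency for signal decrease marking cytotoxic or nonspecific inhibition.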 The class given is functional, cell-based.
Assay [10] can be described thus: inhibitors of clade B AD8 Env fusion, dose response, cell-based, cherry-pick (AID 652062).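 Further: luciferase signal from cell-cell fusion driven by HIV-1 clade B AD8 Env; potency is for inhibitors of fusion seen as a drop in luminescence.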 The class given is functional.
The nature of assay [11]: NIH-3T3 fibroblast cytotoxicity, dose response, cytotoxicity control, cell-based, fluorescence, Alamar Blue, secondary assay (AID 2327).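 Further: NIH-3T3 mouse fibroblasts cultured with fluconazole at 8 µg/mL.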 In kind it is functional. On the technique in general: Resazurin is reduced to fluorescent resorufin, in cell work by metabolically active cells.
The nature of assay [12]: C. albicans growth with fluconazole, confirmation, fluorescence, retest (AID 2467). The class given is functional, cell-based.
Assay [13] in a line: inhibitors of Bluetongue virus cytopathic effect, confirmation, arbovirus, BSR cells (AID 1250).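 Further: protection from viral cytopathic effect measured as cell viability by ATP luminescence.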 The class given is functional. On the technique in general: Damage to the host cells serves as the signal in cytopathic effect assays.
In a further assay the target is Genome polyprotein (dengue virus type 2, UniProt P29990). Kind of assay: Dengue-2 NS5 methyltransferase inhibitors, primary screen, biochemical, confirmation dose response (AID 588689). The class given is functional.
Genome polyprotein, sequence (P29990 2492-3391 limits assumed): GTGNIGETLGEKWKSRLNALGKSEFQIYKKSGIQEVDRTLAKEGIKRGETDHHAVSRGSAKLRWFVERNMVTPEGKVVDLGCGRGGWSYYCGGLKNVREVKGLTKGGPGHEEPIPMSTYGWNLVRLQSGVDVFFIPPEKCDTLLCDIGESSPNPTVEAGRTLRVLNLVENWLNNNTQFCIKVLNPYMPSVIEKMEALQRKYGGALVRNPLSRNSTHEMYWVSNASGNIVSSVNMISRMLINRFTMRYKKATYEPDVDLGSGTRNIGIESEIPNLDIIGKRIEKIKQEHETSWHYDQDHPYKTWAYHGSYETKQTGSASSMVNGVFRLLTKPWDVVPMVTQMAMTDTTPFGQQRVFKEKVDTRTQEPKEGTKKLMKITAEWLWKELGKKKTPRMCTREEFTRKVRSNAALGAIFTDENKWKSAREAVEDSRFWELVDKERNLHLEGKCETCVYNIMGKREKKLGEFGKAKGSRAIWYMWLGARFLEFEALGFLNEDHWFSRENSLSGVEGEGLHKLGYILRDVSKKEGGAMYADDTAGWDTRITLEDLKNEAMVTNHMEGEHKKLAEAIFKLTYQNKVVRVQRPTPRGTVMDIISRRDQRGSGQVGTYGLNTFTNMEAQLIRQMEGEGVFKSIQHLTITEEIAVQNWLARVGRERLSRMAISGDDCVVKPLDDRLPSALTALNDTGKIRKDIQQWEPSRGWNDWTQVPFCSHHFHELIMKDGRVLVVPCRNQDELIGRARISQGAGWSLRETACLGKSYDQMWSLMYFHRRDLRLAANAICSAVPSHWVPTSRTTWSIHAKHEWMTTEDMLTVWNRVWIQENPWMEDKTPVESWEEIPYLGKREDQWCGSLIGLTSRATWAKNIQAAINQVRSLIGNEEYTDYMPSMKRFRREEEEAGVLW
Assay [14] in a line: insulin promoter down-regulators in MIN6 cells, imaging, high-content screening, mouse beta cells (AID 1628). In kind it is functional.
Assay [15] can be described thus: cytotoxicity in MIN6 insulinoma cells, dose response, cytotoxicity control, cell-based, mouse insulinoma (AID 2122).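 Further: confirmatory high-throughput counterscreen run to flag cytotoxic compounds; mouse MIN-6 beta cells carrying an insulin promoter eGFP reporter.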 In kind it is functional.
A further assay concerns the target Galanin receptor type 2 (Homo sapiens, UniProt O43603). Kind of assay: Dose Response cell-based high-throughput screening assay to identify antagonists of galanin receptor 2 (GALR2). [Related pubchem assays: 828, 866 ]. The class given is functional.
The target of assay [16] is Sphingosine 1-phosphate receptor 4 (Homo sapiens, UniProt O95977). Kind of assay: Fluorescence dose response cell-based high throughput screening assay for antagonists of the Sphingosine 1-Phosphate Receptor 4 (S1P4). [Related pubchem assays: 1524 (Confirmation in triplicates.), 1510 (Primary screen.)]. In kind it is functional.
Sphingosine 1-phosphate receptor 4, sequence (O95977 whole entry): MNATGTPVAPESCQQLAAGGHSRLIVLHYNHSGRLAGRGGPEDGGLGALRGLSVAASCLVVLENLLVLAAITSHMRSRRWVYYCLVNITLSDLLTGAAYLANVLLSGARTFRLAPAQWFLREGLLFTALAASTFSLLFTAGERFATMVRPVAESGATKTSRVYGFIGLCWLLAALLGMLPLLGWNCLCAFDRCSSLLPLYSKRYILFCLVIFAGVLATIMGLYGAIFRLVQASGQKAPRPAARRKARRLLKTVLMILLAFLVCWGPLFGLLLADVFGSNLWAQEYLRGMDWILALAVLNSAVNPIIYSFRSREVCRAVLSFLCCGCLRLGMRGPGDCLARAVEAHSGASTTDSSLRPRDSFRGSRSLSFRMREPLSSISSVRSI
The target of assay [17] is Sphingosine 1-phosphate receptor 1 (Homo sapiens, UniProt P21453). In kind it is functional.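 Further: Tango beta-arrestin reporter U2OS cells stimulated with S1P near its EC80; inhibitor potency meaning antagonism of receptor activation by the natural agonist.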
Sphingosine 1-phosphate receptor 1, sequence (P21453 whole entry): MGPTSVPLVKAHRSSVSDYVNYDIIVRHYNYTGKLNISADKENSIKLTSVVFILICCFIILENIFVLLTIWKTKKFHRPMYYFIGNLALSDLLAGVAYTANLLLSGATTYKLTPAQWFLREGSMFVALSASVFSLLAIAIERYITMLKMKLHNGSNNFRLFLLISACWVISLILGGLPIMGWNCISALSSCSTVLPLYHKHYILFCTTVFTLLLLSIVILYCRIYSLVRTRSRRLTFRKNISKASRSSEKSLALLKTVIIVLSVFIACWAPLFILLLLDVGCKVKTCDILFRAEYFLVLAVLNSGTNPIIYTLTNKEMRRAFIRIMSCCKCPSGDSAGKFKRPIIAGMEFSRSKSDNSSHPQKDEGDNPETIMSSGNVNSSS
Assay [18] can be described thus: Luminescence Cell-Based Dose Retest to Confirm Inhibitors of Cancer Stem Cells. [Related pubchem assays (depositor defined):AID2717, AID2721]. In kind it is functional. Conditions: Homo sapiens.
Assay [19] deals with T1, Heat shock factor protein 1. Description: HSF1 potentiators in luciferase reporter cells, confirmation, cell-based, NIH3T3, luminescence, dose retest (AID 435004).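 Further: stress induced by proteasome inhibitor MG132 added 30 min after compound; luciferase reporter driven by HSF1 response element in NIH3T3 cells; actives raise luminescence as potentiators of the MG132 stress response.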 In kind it is functional.
Assay [20] is described as follows: Fluorescence-based cell-based high throughput dose response assay for inhibitors of the interaction of nucleotide-binding oligomerization domain containing 2 (NOD2) and the receptor-interacting serine-threonine kinase 2 (RIPK2). The class given is functional. Conditions: Homo sapiens.
The next assay deals with Paired box protein Pax-8 (Homo sapiens, UniProt Q06710). Description: inhibitors of PAX8-driven TPO luciferase reporter, dose response, RMG-I cells, cherry-pick (AID 687027).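 Further: luciferase reporter driven by Pax8 target thyroperoxidase promoter measured by SteadyGlo luminescence.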 The class given is functional, cell-based.
Paired box protein Pax-8, sequence (Q06710 whole entry): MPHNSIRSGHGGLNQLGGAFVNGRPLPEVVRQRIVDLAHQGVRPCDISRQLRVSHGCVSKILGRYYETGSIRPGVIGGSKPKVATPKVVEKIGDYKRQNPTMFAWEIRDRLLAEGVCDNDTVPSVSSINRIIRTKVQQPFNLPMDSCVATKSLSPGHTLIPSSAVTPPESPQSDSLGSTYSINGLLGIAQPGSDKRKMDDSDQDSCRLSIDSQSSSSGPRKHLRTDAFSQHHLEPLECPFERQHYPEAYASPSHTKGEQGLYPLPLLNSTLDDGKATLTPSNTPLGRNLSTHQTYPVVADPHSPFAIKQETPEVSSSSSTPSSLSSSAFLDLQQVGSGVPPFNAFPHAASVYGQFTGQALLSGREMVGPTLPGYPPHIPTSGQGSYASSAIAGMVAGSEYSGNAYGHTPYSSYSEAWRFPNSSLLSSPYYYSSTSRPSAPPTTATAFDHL
Assay [21] is described as follows: inhibitors of PGC1a acetylation in cells, dose response, cell-based, cherry-picked samples (AID 720514).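 Further: potency may reflect raised or lowered acetylation signal.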 In kind it is functional.
Assay [22] deals with HEK293. Description: cells. Conditions: Homo sapiens.
Assay [23] has as its system HEK293. Description: cells. Conditions: Homo sapiens. This is another data set of the same source.
A short description of assay [24]: enhancers of respiration in Yfh1-depleted yeast, dose response, Friedreich's ataxia, plus single-dose screen (AID 1465).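 Further: yeast depleted of Yfh1p frataxin homolog grown on glycerol needing respiration; WST-1 tetrazolium dye reduction as measure of cellular dehydrogenase metabolic activity.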 In kind it is functional.
The nature of assay [25]: A Cell Based Secondary Assay To Explore Cytotoxicity of Compounds that Sensitize Mycobacterium Tuberculosis to Beta-Lactam Antibiotics. In kind it is functional.
The test system of the next assay is H9c2. Kind of assay: cells. The class given is functional, cell-based. The note with it: Rattus norvegicus, H9c2, Myocardium.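 Further: confirmatory concentration-response retest of ultra-high-throughput screening hits for modulation of myocardial damage; cell death induced by hydrogen peroxide oxidative stress; compound pretreatment for 60 min then peroxide exposure for 2 h; potency is for protecting the cells against peroxide damage rather than for killing them.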
The next assay relates to HeLa. Kind of assay: Cytotoxicity counterscreen assay for transcriptional activators of heat shock protein 70 (Hsp70). [Related pubchem assays: 1203, 1252 ]. The class given is functional. Conditions: Homo sapiens.
The target in assay [26] is Heat shock protein HSP 90-alpha (Homo sapiens, UniProt P07900). In kind it is functional, organism-based.
The subject of another assay is INS1. Description: beta cell apoptosis inhibitors, cytokine rescue, dose response, luminescence, retest (AID 449756).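 Further: cell death triggered by IL-1 beta plus TNF-alpha plus IFN-gamma mixture; protective hits raise ATP signal compared with cytokine alone wells.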 The class given is functional, cell-based. Conditions: Rattus norvegicus.
Assay [27] concerns the target Peroxisome proliferator-activated receptor gamma/Nuclear receptor coactivator 2 (Homo sapiens, UniProt P37231). In kind it is functional.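 Further: agonist potency for raising coactivator recruitment to the receptor.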
For assay [28], the target named is Peroxisome proliferator-activated receptor gamma/Nuclear receptor coactivator 1 (Homo sapiens, UniProt P37231). In kind it is functional.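 Further: agonist potency as compounds enhance coactivator SRC-1 recruitment to PPARgamma.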
The target of assay [29] is Peroxisome proliferator-activated receptor gamma/Nuclear receptor coactivator 3 (Homo sapiens, UniProt P37231). In kind it is functional.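 Further: agonist potency for raising coactivator recruitment to the receptor.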
Peroxisome proliferator-activated receptor gamma/Nuclear receptor coactivator 3, sequence (P37231 whole entry): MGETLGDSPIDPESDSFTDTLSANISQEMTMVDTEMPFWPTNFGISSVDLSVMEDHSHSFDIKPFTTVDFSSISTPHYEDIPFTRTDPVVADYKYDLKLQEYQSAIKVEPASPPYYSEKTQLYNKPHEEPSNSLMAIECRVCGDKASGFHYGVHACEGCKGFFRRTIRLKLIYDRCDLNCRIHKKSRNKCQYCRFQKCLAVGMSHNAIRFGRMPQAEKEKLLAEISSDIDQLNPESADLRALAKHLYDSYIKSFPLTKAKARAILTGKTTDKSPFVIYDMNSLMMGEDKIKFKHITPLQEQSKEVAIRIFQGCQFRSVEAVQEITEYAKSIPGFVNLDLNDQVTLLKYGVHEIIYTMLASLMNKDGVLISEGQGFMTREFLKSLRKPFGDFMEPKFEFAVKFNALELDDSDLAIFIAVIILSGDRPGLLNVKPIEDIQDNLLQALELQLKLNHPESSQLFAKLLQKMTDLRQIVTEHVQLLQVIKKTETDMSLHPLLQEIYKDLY
Peroxisome proliferator-activated receptor gamma/Nuclear receptor coactivator 3, sequence (Q9Y6Q9 whole entry, further chain): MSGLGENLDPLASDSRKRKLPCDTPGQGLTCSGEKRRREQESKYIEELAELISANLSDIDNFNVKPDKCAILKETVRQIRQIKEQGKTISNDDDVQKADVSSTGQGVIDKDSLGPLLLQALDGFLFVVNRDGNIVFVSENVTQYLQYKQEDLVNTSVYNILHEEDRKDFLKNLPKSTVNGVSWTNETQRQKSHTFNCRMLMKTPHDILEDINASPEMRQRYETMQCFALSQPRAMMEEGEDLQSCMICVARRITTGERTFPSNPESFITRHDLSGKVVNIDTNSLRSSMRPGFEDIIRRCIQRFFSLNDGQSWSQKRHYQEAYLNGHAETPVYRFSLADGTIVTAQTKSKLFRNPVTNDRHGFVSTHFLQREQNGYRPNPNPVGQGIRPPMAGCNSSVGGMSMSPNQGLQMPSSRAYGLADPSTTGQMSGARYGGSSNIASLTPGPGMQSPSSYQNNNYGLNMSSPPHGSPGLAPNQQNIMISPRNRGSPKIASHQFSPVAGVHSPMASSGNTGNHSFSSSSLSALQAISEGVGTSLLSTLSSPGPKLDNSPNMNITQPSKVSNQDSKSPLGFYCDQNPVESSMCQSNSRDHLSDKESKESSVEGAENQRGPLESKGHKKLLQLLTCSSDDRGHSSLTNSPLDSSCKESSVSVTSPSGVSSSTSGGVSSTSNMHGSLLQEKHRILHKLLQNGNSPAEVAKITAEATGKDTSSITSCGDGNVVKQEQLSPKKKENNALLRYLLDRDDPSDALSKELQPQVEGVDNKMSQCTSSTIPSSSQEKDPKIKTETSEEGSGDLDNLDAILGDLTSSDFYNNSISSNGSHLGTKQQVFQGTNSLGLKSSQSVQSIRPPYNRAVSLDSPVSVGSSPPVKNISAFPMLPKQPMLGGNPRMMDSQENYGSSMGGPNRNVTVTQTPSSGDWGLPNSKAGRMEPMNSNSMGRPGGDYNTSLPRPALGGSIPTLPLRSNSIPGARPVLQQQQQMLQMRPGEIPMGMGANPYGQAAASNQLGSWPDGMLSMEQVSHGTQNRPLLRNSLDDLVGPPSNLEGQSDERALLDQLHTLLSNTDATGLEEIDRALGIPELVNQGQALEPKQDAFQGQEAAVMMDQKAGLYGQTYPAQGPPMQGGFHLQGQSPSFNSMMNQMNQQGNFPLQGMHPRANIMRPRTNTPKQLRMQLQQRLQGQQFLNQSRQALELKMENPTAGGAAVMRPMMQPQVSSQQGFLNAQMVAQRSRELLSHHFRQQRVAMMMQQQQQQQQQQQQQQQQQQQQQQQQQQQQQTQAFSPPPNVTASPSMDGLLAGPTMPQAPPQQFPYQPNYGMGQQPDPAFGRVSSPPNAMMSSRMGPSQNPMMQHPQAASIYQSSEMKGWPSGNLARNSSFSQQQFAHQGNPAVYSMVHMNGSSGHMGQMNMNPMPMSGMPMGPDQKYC
Assay [30] addresses ADP-ribosylation factor GTPase-activating protein 1 (Rattus norvegicus, UniProt Q62848). Kind of assay: Fluorescence polarization-based biochemical high throughput dose response screening assay to identify inhibitors of ADP-ribosylation factor GTPase activating protein 1 (ARFGAP1). In kind it is functional.

Galanin receptor type 2, sequence (O43603 whole entry): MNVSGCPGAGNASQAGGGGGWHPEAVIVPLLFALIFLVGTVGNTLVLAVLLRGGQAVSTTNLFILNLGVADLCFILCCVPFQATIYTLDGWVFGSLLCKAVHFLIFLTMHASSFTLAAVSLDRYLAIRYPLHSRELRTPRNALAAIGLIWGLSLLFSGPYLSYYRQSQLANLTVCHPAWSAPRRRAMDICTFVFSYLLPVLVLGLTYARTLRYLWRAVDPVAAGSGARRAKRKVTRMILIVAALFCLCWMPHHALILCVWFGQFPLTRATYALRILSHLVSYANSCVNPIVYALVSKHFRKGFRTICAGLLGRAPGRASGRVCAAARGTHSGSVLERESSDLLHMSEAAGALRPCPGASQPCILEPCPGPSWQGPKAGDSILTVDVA
ADP-ribosylation factor GTPase-activating protein 1, sequence (Q62848 whole entry): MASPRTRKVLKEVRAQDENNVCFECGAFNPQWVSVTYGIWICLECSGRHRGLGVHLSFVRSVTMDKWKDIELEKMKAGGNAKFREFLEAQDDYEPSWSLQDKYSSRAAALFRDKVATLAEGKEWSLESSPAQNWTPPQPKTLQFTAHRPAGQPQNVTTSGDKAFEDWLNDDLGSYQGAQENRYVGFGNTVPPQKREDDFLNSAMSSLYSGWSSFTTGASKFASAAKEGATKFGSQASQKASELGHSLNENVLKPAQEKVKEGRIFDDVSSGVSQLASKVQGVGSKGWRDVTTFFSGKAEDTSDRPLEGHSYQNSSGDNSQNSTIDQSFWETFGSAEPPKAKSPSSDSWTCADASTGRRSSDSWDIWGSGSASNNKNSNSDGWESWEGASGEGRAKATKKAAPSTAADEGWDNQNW

`O=C(NC1=NCCS1)C1COc2ccccc2O1` (stereo unspecified): the EC50 is 3.37 µM (active) in [1], > 60 µM (not active) in [2], 8.01 µM (active) in [3] and 0.149 µM (active) in [4]. Besides, the IC50 in assay [5] is > 39.8 µM (not active). Besides, the half-maximal activity concentration (AC50) was 1.7 µM (active) in [6]; 1.62 µM (active) in assay [7]; 13.7 µM (active) in assay [8]; 3.15 µM (active) in [9]; 3.6 µM (active) in assay [10].
Turning to `CCCCCCn1c(=O)c(-c2ccccc2)c(O)c2ccccc21`, the EC50 is > 150 µM (inactive) in assay [11] and 4.42 µM (active) in assay [12]. For the same compound, the results for the IC50 (in [13]; on Genome polyprotein) were 25 µM (active) and 69.4 µM (active), respectively.
Take `O=C(Cn1ncc(Cl)c(Cl)c1=O)N1CCN(S(=O)(=O)c2ccc3ccccc3c2)CC1`: the IC50 in assay [14] was 1.34 µM (active); in assay [15], 1.19 µM (active); on Galanin receptor type 2 it was 5.37 µM (active); in assay [16], 1.52 µM (active); in [17] it was 8.59 µM (active); in assay [20], 1.77 µM (active). Besides, the AC50 is 3.25 µM (active) in assay [18], 2.51 µM (active) at Paired box protein Pax-8 and 4.24 µM (active) in assay [21]. Further, the EC50 in [19] was 3.7 µM (active); with HEK293 [22], > 59.6 µM (inactive); in the assay on HEK293 [23], > 59.6 µM (inactive).
On to `CC(C)NC(=O)/C(C#N)=C/c1ccc(N(C)C)o1`, for which the EC50 in assay [24] is > 100 µM (active).
In the case of `Nc1c(C(=O)NC2CC2)c2nc3ccccc3nc2n1-c1ccc2c(c1)OCO2`, the CC50 in assay [25] was > 40 µM (active). The IC50 with H9c2 was > 79 µM (inactive).
`CC(C)(C)C1C/C(=C/c2ccccn2)C(=O)/C(=C/c2ccccn2)C1` (stereo unspecified): the CC50 in the assay with HeLa was > 1.22 µM (not active). Further, the results for the AC50 (in assay [26]; in the assay with INS1) were 7.8 µM (active) and 0.579 µM (active), respectively.
For `COc1ccccc1CNC(=O)CSc1nc(N)c(C#N)c(-c2cccs2)c1C#N`, the EC50 in assay [27] was 67.6 µM (not active); in assay [28], > 79.4 µM (not active); in assay [29], > 79.4 µM (not active). Moreover, the IC50 in assay [30] was 43.2 µM (inactive).

As usually defined, the EC50 is the concentration that produces a half-maximal response. Broadly, the IC50 is the concentration that inhibits the measured activity by half. Broadly, the AC50 is the concentration at which the activity in the assay is half-maximal. In general, CC50 refers to the concentration at which the toxic effect on the cells reaches its halfway point.
